# System: Mild to Moderate Osteoarthritis of the Knee
# Test: Phase 2 study: WOMAC difficulty performing daily activities subscale score
# Format: in vivo, human
# Settings: for Change of WOMAC Difficulty performing daily activities score from baseline (±SEM) / Percentage of improvement from baseline, WOMAC Difficulty performing daily activities score: all patients taken as active; for WOMAC Difficulty Performing Daily Activities Subscale Score, Avg.: Avg. of all patients; for WOMAC Difficulty Performing Daily Activities Subscale Score, Avg. / WOMAC Difficulty Performing Daily Activities Subscale Score: blinded; for WOMAC Difficulty Performing Daily Activities Subscale Score: individual patient
# Description: This is a Phase 2, multicenter, randomized, double blind (within dose), placebo controlled, parallel group, proof of concept, and dose range finding study to evaluate the efficacy, safety, and PK of 2-(diethylamino)ethyl 2-(4-isobutylphenyl)propionate hydrochloride spray in adult subjects with clinically symptomatic mild to moderate OA of the knee. For subjects with bilateral knee pain, both knees will be treated, but the most symptomatic knee (i.e., the most painful knee as measured by the Western Ontario and McMaster University Osteoarthritis Index [WOMAC® 3.1] pain subscale score at Screening) will be designated as the target knee for efficacy analyses. For subjects with unilateral knee pain, only the symptomatic (target) knee will be treated.
# After a Screening Period of up to 3 weeks and radiographic evaluation of the target knee joint space, a subject will be randomly assigned to 1 of 3 treatment groups in a 1:1:1 ratio with a 2:1 ratio of active:placebo within each treatment group (ie, 2 subjects to active treatment and 1 subject to placebo): • Group A: 8.75 mg 2-(diethylamino)ethyl 2-(4-isobutylphenyl)propionate/knee (2 sprays/knee, one spray to the medial surface and one spray to the lateral surface of the knee), twice daily (BID, approximately every 12 hours; n=50) or placebo (2 sprays/knee), BID (approximately every 12 hours; n=25) for a total of 4 sprays per knee per day; • Group B: 17.5 mg 2-(diethylamino)ethyl 2-(4-isobutylphenyl)propionate/knee (4 sprays/knee, one spray to the medial surface and one spray to the lateral surface of the knee, and one spray to front and one spray to the back of the knee), BID (approximately every 12 hours; n=50) or placebo (4 sprays/knee), BID (approximately every 12 hours; n=25) for a total of 8 sprays per knee per day; • Group C: 35 mg 2-(diethylamino)ethyl 2-(4-isobutylphenyl)propionate/knee (8 sprays/knee, each spray is to be applied to a different non-overlapping area around the knee, and the areas are to be uniformly distributed around the knee), BID (approximately every 12 hours; n=50) or placebo (8 sprays/knee), BID (approximately every 12 hours; n=25) for a total of 16 sprays per knee per day.
# The VAS version of the WOMAC will be used for the Primary and Secondary Efficacy Endpoints. Efficacy endpoints will be assessed at Screening and Baseline (Day 1) and at the Week 2, Week 4, Week 8, and Week 12/EOS visits.
# 3.9.2. Secondary Efficacy Endpoints: • 1. Change from Baseline in the WOMAC (VAS) pain subscale score for the target knee at 2, 4, and 8 weeks of treatment; • 2. Change from Baseline in the WOMAC (VAS) stiffness subscale scores for the target knee and WOMAC (VAS) functional ability subscale scores at 2, 4, 8, and 12 weeks of treatment; • 3. Change from Baseline in the overall WOMAC (VAS) score at 2, 4, 8, and 12 weeks of treatment.
# The Secondary Efficacy Endpoints, change from Baseline in the WOMAC subscale scores for pain, stiffness, and functional ability, and overall WOMAC score at 2, 4, 8, and 12 weeks of treatment, will be analyzed using the same methods as for the Primary Efficacy Endpoint.
# To determine this, we assumed that all patients received 2-(diethylamino)ethyl 2-(4-isobutylphenyl)propionate, active drug treatment (i.e. all patients who received 2-(diethylamino)ethyl 2-(4-isobutylphenyl)propionate or placebo treatment for 12 weeks or mixed up treatment during the 12-week treatment, as 2-(diethylamino)ethyl 2-(4-isobutylphenyl)propionate-treated). Based on this assumption, that is, to treat this trial as an open-label study and that all patients received active treatment, we conducted efficacy analysis using top-line efficacy datasets prepared by CRO and the re-analysis results are presented in the following tables (Tables 29-47). […] (William G. Bensen, Justus J. Fiechtner, James 1. McMillen, et. al. Treatment of Osteoarthritis with Celecoxib. Mayo Clin Proc, November 1999. Vol 74, 1095-1105.)
# [1] = 35 mg/knee (BID), Week 8 (day 56)
# [2] = 35 mg/knee (BID), Week 12 (day 84)
# [3] = Middle Dose (4 spray/knee, 17.5 mg/knee) Cohort, Day 1
# [4] = Middle Dose (4 spray/knee, 17.5 mg/knee) Cohort, Week 4
compound,measurement,setting,value
CCN(CC)CCOC(=O)C(C)c1ccc(CC(C)C)cc1 (stereo not shown) [2-(diethylamino)ethyl 2-(4-isobutylphenyl)propionate],"Percentage of improvement from baseline, WOMAC Difficulty performing daily activities score, adjusted by […] of the Testing Drug Amount",[1],−55.1%
same,Change of WOMAC Difficulty performing daily activities score from baseline (±SEM),[1],−18.4(±2.6) mm
same,"Percentage of improvement from baseline, WOMAC Difficulty performing daily activities score",[1],−32.1%
same,"Change of WOMAC Difficulty performing daily activities score from baseline (±SEM), adjusted by […] of the Testing Drug Amount",[2],−35.8(±4.8) mm
same,"Percentage of improvement from baseline, WOMAC Difficulty performing daily activities score, adjusted by […] of the Testing Drug Amount",[2],−62.4%
same,Change of WOMAC Difficulty performing daily activities score from baseline (±SEM),[2],−20.9(±2.8) mm
same,"Percentage of improvement from baseline, WOMAC Difficulty performing daily activities score",[2],−36.4%
same,reduction of difficulty performing daily activities WOMAC from baseline to week 12,5 patients on second batch active drug kits,65.1-100%
same,"WOMAC Difficulty Performing Daily Activities Subscale Score, Avg.","35 mg/knee (8 spray/knee), Day 1",57.4
same,"WOMAC Difficulty Performing Daily Activities Subscale Score, Avg.","35 mg/knee (8 spray/knee), Follow-up",37.0
same,"WOMAC Difficulty Performing Daily Activities Subscale Score, Avg.","35 mg/knee (8 spray/knee), Week 2",48.0
same,"WOMAC Difficulty Performing Daily Activities Subscale Score, Avg.","35 mg/knee (8 spray/knee), Week 4",44.0
same,"WOMAC Difficulty Performing Daily Activities Subscale Score, Avg.","35 mg/knee (8 spray/knee), Week 8",39.0
same,"WOMAC Difficulty Performing Daily Activities Subscale Score, Avg.","35 mg/knee (8 spray/knee), Week 12",36.5
same,"WOMAC Difficulty Performing Daily Activities Subscale Score, Avg.",[3],63.4
same,"WOMAC Difficulty Performing Daily Activities Subscale Score, Avg.","Middle Dose (4 spray/knee, 17.5 mg/knee) Cohort, Follow-up",40.3
same,"WOMAC Difficulty Performing Daily Activities Subscale Score, Avg.","Middle Dose (4 spray/knee, 17.5 mg/knee) Cohort, Week 2",48.1
same,"WOMAC Difficulty Performing Daily Activities Subscale Score, Avg.",[4],42.3
same,"WOMAC Difficulty Performing Daily Activities Subscale Score, Avg.","Middle Dose (4 spray/knee, 17.5 mg/knee) Cohort, Week 8",39.3
same,"WOMAC Difficulty Performing Daily Activities Subscale Score, Avg.","Middle Dose (4 spray/knee, 17.5 mg/knee) Cohort, Week 12",36.5
same,"WOMAC Difficulty Performing Daily Activities Subscale, WOMAC VAS Score","Patient 1056, second batch active drug kits, Day 1",39.6 mm
same,"WOMAC Difficulty Performing Daily Activities Subscale, WOMAC VAS Score","Patient 1056, second batch active drug kits, Follow Up",11.6 mm
same,"WOMAC Difficulty Performing Daily Activities Subscale, WOMAC VAS Score","Patient 1056, second batch active drug kits, Week 2",27.1 mm
same,"WOMAC Difficulty Performing Daily Activities Subscale, WOMAC VAS Score","Patient 1056, second batch active drug kits, Week 4",24.4 mm
same,"WOMAC Difficulty Performing Daily Activities Subscale, WOMAC VAS Score","Patient 1056, second batch active drug kits, Week 8",25.2 mm
same,"WOMAC Difficulty Performing Daily Activities Subscale, WOMAC VAS Score","Patient 1056, second batch active drug kits, Week 12",18.1 mm
same,"WOMAC Difficulty Performing Daily Activities Subscale, WOMAC VAS Score","Patient 1064, second batch active drug kits, Day 1",33.6 mm
same,"WOMAC Difficulty Performing Daily Activities Subscale, WOMAC VAS Score","Patient 1064, second batch active drug kits, Follow Up",0.4 mm
same,"WOMAC Difficulty Performing Daily Activities Subscale, WOMAC VAS Score","Patient 1064, second batch active drug kits, Week 2",24.4 mm
same,"WOMAC Difficulty Performing Daily Activities Subscale, WOMAC VAS Score","Patient 1064, second batch active drug kits, Week 4",1.1 mm
same,"WOMAC Difficulty Performing Daily Activities Subscale, WOMAC VAS Score","Patient 1064, second batch active drug kits, Week 8",0.5 mm
same,"WOMAC Difficulty Performing Daily Activities Subscale, WOMAC VAS Score","Patient 1064, second batch active drug kits, Week 12",0.6 mm
same,"WOMAC Difficulty Performing Daily Activities Subscale, WOMAC VAS Score","Patient 1535, second batch active drug kits, Day 1",51.6 mm
same,"WOMAC Difficulty Performing Daily Activities Subscale, WOMAC VAS Score","Patient 1535, second batch active drug kits, Follow Up",0.2 mm
same,"WOMAC Difficulty Performing Daily Activities Subscale, WOMAC VAS Score","Patient 1535, second batch active drug kits, Week 2",3.3 mm
same,"WOMAC Difficulty Performing Daily Activities Subscale, WOMAC VAS Score","Patient 1535, second batch active drug kits, Week 4",2.8 mm
same,"WOMAC Difficulty Performing Daily Activities Subscale, WOMAC VAS Score","Patient 1535, second batch active drug kits, Week 8",3.5 mm
same,"WOMAC Difficulty Performing Daily Activities Subscale, WOMAC VAS Score","Patient 1535, second batch active drug kits, Week 12",0.2 mm
same,"WOMAC Difficulty Performing Daily Activities Subscale, WOMAC VAS Score","Patient 1539, second batch active drug kits, Day 1",73.0 mm
same,"WOMAC Difficulty Performing Daily Activities Subscale, WOMAC VAS Score","Patient 1539, second batch active drug kits, Follow Up",4.4 mm
same,"WOMAC Difficulty Performing Daily Activities Subscale, WOMAC VAS Score","Patient 1539, second batch active drug kits, Week 2",47.8 mm
same,"WOMAC Difficulty Performing Daily Activities Subscale, WOMAC VAS Score","Patient 1539, second batch active drug kits, Week 4",43 mm
same,"WOMAC Difficulty Performing Daily Activities Subscale, WOMAC VAS Score","Patient 1539, second batch active drug kits, Week 8",5.5 mm
same,"WOMAC Difficulty Performing Daily Activities Subscale, WOMAC VAS Score","Patient 1539, second batch active drug kits, Week 12",8.4 mm
same,"WOMAC Difficulty Performing Daily Activities Subscale, WOMAC VAS Score","Patient 9032, second batch active drug kits, Day 1",16.4 mm
same,"WOMAC Difficulty Performing Daily Activities Subscale, WOMAC VAS Score","Patient 9032, second batch active drug kits, Follow Up",2.8 mm
same,"WOMAC Difficulty Performing Daily Activities Subscale, WOMAC VAS Score","Patient 9032, second batch active drug kits, Week 2",6.0 mm
same,"WOMAC Difficulty Performing Daily Activities Subscale, WOMAC VAS Score","Patient 9032, second batch active drug kits, Week 4",7.1 mm
same,"WOMAC Difficulty Performing Daily Activities Subscale, WOMAC VAS Score","Patient 9032, second batch active drug kits, Week 8",3.4 mm
same,"WOMAC Difficulty Performing Daily Activities Subscale, WOMAC VAS Score","Patient 9032, second batch active drug kits, Week 12",2.5 mm
same,WOMAC Difficulty Performing Daily Activities Subscale Score,[3],64.5
same,WOMAC Difficulty Performing Daily Activities Subscale Score,[4],66.8

# — patent publication US20240024273A1, “TOPICAL ADMINISTRATION OF 2-(DIETHYLAMINO)ETHYL 2-(4-ISOBUTYLPHENYL)PROPRIONATE FOR TREATMENT OF DISEASES” (TECHFIELDS PHARMA CO., LTD., priority 2020, published 2024)
